Key:
Format in all cases: physicochemical
[1] = Water solubility: heated to a clear solution, cooled to ambient temperature; details: ambient temperature after heating to a clear solution
Experimental: To a vial was added 5.00 g of 3-((lauryloxycarbonylpropyl)-dimethylammonio)propanesulfonate and 10.00 g of water. The mixture was heated to 100° C. for an hour to afford a clear solution. The mixture was then allowed to cool to ambient temperature, at which point it was still homogeneous with no precipitate or gel.
To a vial was added 5.00 g of 3-((lauryloxycarbonylmethyl)-dimethylammonio)propanesulfonate and 45.00 g of water. The mixture was heated to 100° C. for an hour to afford a clear solution. The mixture was then allowed to cool to ambient temperature resulting in a white solid. The solid was recovered by filtration and dried in a vacuum oven at 55° C. in vacuo with a nitrogen sweep overnight to afford 4.58 g of 3-((lauryloxycarbonylmethyl)-dimethylammonio)propanesulfonate.
To a vial was added 10.00 g of 3-((4-laurylamino-4-oxobutyl)-dimethylammonio)propanesulfonate and 20.00 g of water. The mixture was heated to 100° C. for an hour to afford a clear solution. The mixture was then allowed to cool to ambient temperature, at which point it was still homogeneous with no precipitate or gel.
The solubility of 3-((2-laurylamino-2-oxoethyl)dimethylammonio)-propanesulfonate was determined by mixing 5.00 g of material with 45.00 g of water and heating to 85° C. for 1 h to afford a clear 10 wt % solution. The material was allowed to cool to ambient temperature to afford a precipitate. The precipitate was filtered, and the resulting solid was dried in vacuo at 50° C. with a nitrogen sweep for 3 days to afford 4.54 g of recovered 3-((2-laurylamino-2-oxoethyl)dimethylammonio)propanesulfonate.

[2] = Critical micelle concentration from surface tension (Wilhelmy plate, K100C Tensiometer); details: deionized water, ambient temperature
Experimental: The critical micelle concentration (CMC) is an important characteristic of a surfactant, and the CMC values were determined for the amphoteric compounds of formula 1. The CMC is defined as the concentration at which micelle formation first begins, and for surface tension determination of CMC, is typically assigned as the concentration of the intersection of two straight lines through the data, where the first line is the linear portion of the initial decline in surface tension with increasing surfactant concentration, and the second is the line of constant surface tension.
The critical micelle concentration was determined from plots of surface tension as a function of the logarithm of active surfactant concentration. Surface tension was measured via the Wilhelmy plate technique. In this method, the downward force of a rigorously clean plate probe that just contacts the liquid surface of the test sample is measured, and the surface tension is calculated from knowledge of the contact angle the liquid makes with the probe surface and the length of the probe plate.
A K100C Tensiometer (Kruss GmbH) was used to measure surface tension of solutions in a glass sample vessel. All measurements were made under ambient temperature conditions.
The tensiometer was equipped with a computer-controlled microdispensing and aspirating system to automate surfactant concentration adjustments of the test solution while maintaining constant solution volume between successive measurements. A roughened platinum plate probe was used. Cleanliness of probe, sample vessel, and microdispensing system was verified after cleaning between samples by measuring the surface tension of pure deionized water run through the system as a control.
100 mL of the 1 mg/L surfactant solution was added to the clean sample vessel and placed in the instrument. The plate probe was rinsed with deionized water and flame treated to combust off residual organic impurities, then mounted in position in the tensiometer. The experiment was initiated and run through the LabDesk version 3.2.2 (Kruss GmbH) software.
The surface tension measurements were run sequentially (and automatically) from most dilute to most concentrated by incrementally injecting known volume aliquots of the 10,000 mg/L surfactant solution into the sample, homogenizing the sample after injection by stirring for 30 seconds via a magnetic stir bar in the solution, and then aspirating out equal volume that was added to the sample vessel to keep the total sample volume constant for each measurement.
The sample vessel was then automatically moved into measurement position, and the surface tension measurement was made and recorded. This sequence was repeated until all concentrations had been measured.
The active surfactant concentration range spanned from 1 mg/L to 5000 mg/L over 50 concentration increments, equally spaced on a logarithmic scale over the full range of concentrations measured.
The sample at each concentration was measured 10 times, and the average of the 10 measures was plotted against the logarithm of the surfactant concentration.
After completing the full range of concentrations, the software provided best-fit lines to estimate CMC, and these regression lines were manually adjusted as needed to give the broadest range of linear behavior for each line.

[3] = Foam height test, Standard Test Method for Foaming Properties of Surface-Active Agents (ASTM 1173-07); details: 49° C.; for Foam height at time t = 0: t = 0 min; for Foam height at time t = 1: t = 1 min; for Foam height at time t = 2: t = 2 min; for Foam height at time t = 3: t = 3 min; for Foam height at time t = 4: t = 4 min; for Foam height at time t = 5: t = 5 min
Description: The Standard Test Method for Foaming Properties of Surface-Active Agents (ASTM 1173-07) for 0.1 wt % and 1.0 wt % was used to determine the foaming properties of the amphoteric compounds of the formula 1 described herein. This method generates foam under low-agitation conditions and is generally used for moderate- and high-foam surfactants. This test gathers data on initial foam height and foam decay. Foam decay provides information on foam stability.
The apparatus for carrying out this test includes a jacketed column and a pipet. The jacketed column serves as a receiver, while the pipet delivers the surface-active solution.
Solutions of each surface-active agent to be measured were prepared in borosilicate glass jars a day ahead of time, using ambient temperature ingredients, and were slowly rolled overnight to homogenize. The solutions were then removed from the rollers and equilibrated in a constant temperature bath (49° C.+/−1° C.) for at least 1 hour before measurement. The solution of the amphoteric compound to be tested was added to the receiver (50 mL) and to the pipet (200 mL). The pipet was positioned above the receiver and opened. As the solution fell and made contact with the solution in the receiver, foam was generated. When the pipet was empty, the time was noted and an initial foam height was recorded. The foam height was recorded each minute for five minutes. Exact size specifications for the glassware can be found in ASTM 1173-07. The foam height results for each amphoteric compound 1 and representative standards are listed below in Tables 1 (0.1% concentration) and 2 (1% concentration).

solubility in water [1] | Critical micelle concentration (CMC) [2] [mg/L] | Foam height at time t = 0 ([3]; 1 g/L (0.1 weight %)) [mm] | Foam height at time t = 1 ([3]; 1 g/L (0.1 weight %)) [mm] | Foam height at time t = 2 ([3]; 1 g/L (0.1 weight %)) [mm] | Foam height at time t = 3 ([3]; 1 g/L (0.1 weight %)) [mm] | Foam height at time t = 4 ([3]; 1 g/L (0.1 weight %)) [mm] | Foam height at time t = 5 ([3]; 1 g/L (0.1 weight %)) [mm] | Foam height at time t = 0 ([3]; 10 g/L (1.0 weight %)) [mm] | Foam height at time t = 1 ([3]; 10 g/L (1.0 weight %)) [mm] | Foam height at time t = 2 ([3]; 10 g/L (1.0 weight %)) [mm] | Foam height at time t = 3 ([3]; 10 g/L (1.0 weight %)) [mm] | Foam height at time t = 4 ([3]; 10 g/L (1.0 weight %)) [mm] | Foam height at time t = 5 ([3]; 10 g/L (1.0 weight %)) [mm] | SMILES
1.02 wt % | – | – | – | – | – | – | – | – | – | – | – | – | – | CCCCCCCCCCCCNC(=O)C[N+](C)(C)CCCS(=O)(=O)[O-] [Comparative Example 4, 3-((2-Laurylamino-2-oxoethyl)dimethylammonio)-propanesulfonate, reference compound]
greater than or equal to 33 wt % | 53.9 | 157 | 154 | 151 | 149 | 147 | 146 | 170 | 166 | 161 | 158 | 154 | 152 | CCCCCCCCCCCCOC(=O)CCC[N+](C)(C)CCCS(=O)(=O)[O-] [Example 5, 3-(3-(Lauryloxycarbonylpropyl)dimethylammonio)-propanesulfonate]
greater than or equal to 33 wt % | 133.9 | 143 | 133 | 123 | 108 | 95 | 75 | 157 | 145 | 137 | 129 | 122 | 116 | CCCCCCCCCCCCNC(=O)CCC[N+](C)(C)CCCS(=O)(=O)[O-] [Example 14, 3-((4-Laurylamino-4-oxobutyl)dimethylammonio)-propanesulfonate]
0.92 wt % | – | – | – | – | – | – | – | – | – | – | – | – | – | CCCCCCCCCCCCOC(=O)C[N+](C)(C)CCCS(=O)(=O)[O-] [Comparative Example 2, 3-((Lauryloxycarbonylmethyl)dimethylammonio)-propanesulfonate, reference compound]
